# In paper PMC4682109, “The experimental power of FR900359 to study Gq-regulated biological processes” (Nature Communications, 2015):
# Where two headings read alike, the source gives them in different places. Starred links: 1 amine or outer side, 2 acyl side, 3 side chain; linkers in the order of their positions; H or OH if unused. Positions of bridges follow the written chain, without caps; N, C: chain ends. Non-standard residues stand in square brackets, D forms with d. Residues, ends and D or L forms follow the SMILES beside them. ξ: configuration not given here. *: point of attachment. Leu(3R-OH,Nα-propionyl) = CCC(=O)N[C@H](C(=O)*)[C@H](O)C(C)C; X1 = CC(C)[C@@H](O[*:3])[C@H](N[*:1])C(=O)[*:2]; NMeT = CN[C@H](C(=O)O)[C@@H](C)O; dPhLac = O=C(O)[C@H](O)Cc1ccccc1; NMeA = CN[C@@H](C)C(=O)O; NMeDha = C=C(NC)C(=O)O; ξNMeA = CNC(C)C(=O)O
# Assays:
# [1] = tested on: HEK293 wild type and HEK293 Gαq/11 knockout cells; assay: Cell viability (CellTiter-Blue, resazurin) in HEK293 wild type and Gαq/11 knockout cells; format: cell-based; settings: supramaximal FR concentrations, 24 h
# Procedure: (§1) B16 cell viability in the presence of various concentrations of FR was measured using the XTT-based cell proliferation kit II (Fa. Roche) according to the manufacturer's protocols. Viability of HEK293 cell lines was assessed using a fluorimetric detection of resorufin (CellTiter-Blue Cell Viability Assay, Promega). Specifically, Gαq/11 ko-HEK293 and HEK293 cells were seeded at a density of 20,000 and 25,000 cells per well into black 96-well poly-D-lysine-coated plates with clear bottom, respectively. Three hours after seeding cells were treated with 0.3% DMSO or FR dissolved in medium for 24 h. To detect cell viability, CellTiter-Blue reagent was added and cells were incubated for 1 h at 37 °C according to the manufacturer's instructions. Fluorescence (excitation 560 nm, emission 590 nm) was measured using a FlexStation 3 Benchtop Multimode Plate Reader and data were expressed as percentage of cell viability relative to DMSO control.
# [2] = tested on: HEK293 Gαq/11 knockout cells; assay: Cell growth and Ki67 staining in HEK293 Gαq/11 knockout cells; format: cell-based; settings: FR 10 μM
# Procedure: For analysis of growth properties of HEK293 cells, 10^5 HEK 293 cells per well were seeded on a 6-well tissue culture plate. After 3 h cells were treated with either 10 μmol FR or 0.1% DMSO. After 72 h cell number was determined by counting in a Neubauer chamber.
# Cells grown on coverslips were fixed with 4% paraformaldehyde in PBS and stained with antibodies as follows (in 0.2% Triton X in PBS, supplemented with 5% donkey serum; 2 h at room temperature): Ki67 MIB-1 (1:200, Covance) and vimentin (1:1,000, Chemicon). Primary antibodies were visualized by secondary antibodies conjugated to Cy5 (1:400, Jackson ImmunoResearch) diluted in 1 μg ml^−1 Hoechst 33342 (nuclei staining) at room temperature for 1 h. For documentation an inverted fluorescence microscope (Axiovert 200; Carl Zeiss MicroImaging, Inc.) equipped with a slider module (ApoTome; Carl Zeiss MicroImaging, Inc.), using filters for DAPI, GFP, Cy3 and Cy5, x25, x40 DIC Plan Apochromat oil objectives, an ebx 75 light source and an AxioCam MRm digital camera was used. Pictures were generated with the Axiovision Rel. 4.8 software (Zeiss).
# [3] = tested on: HEK293 Gαq/11 knockout cells; assay: Annexin V flow cytometry in HEK293 Gαq/11 knockout cells; format: cell-based; settings: FR 10 μM, 72 h; representative experiment
# Text: For apoptosis analysis of HEK293 cells, cells were stained for Annexin V by use of the Annexin V-FITC Apoptosis Detection Kit (Calbiochem) according to the manufacturer's instructions.
# [4] = biological target: T1, Gq (Cricetulus griseus, UniProt Q3HR10); assay: IP1 accumulation in M1-CHO cells, carbachol; format: cell-based, Chinese hamster; settings: carbachol 30 µM, means ± SEM of at least three experiments, read-out: pIC50, IP1 (% of 30 µM carbachol) (converted)
# T1 construct: endogenous in cells; host or cells: M1-CHO cells
# T1 sequence (Q3HR10 1-359): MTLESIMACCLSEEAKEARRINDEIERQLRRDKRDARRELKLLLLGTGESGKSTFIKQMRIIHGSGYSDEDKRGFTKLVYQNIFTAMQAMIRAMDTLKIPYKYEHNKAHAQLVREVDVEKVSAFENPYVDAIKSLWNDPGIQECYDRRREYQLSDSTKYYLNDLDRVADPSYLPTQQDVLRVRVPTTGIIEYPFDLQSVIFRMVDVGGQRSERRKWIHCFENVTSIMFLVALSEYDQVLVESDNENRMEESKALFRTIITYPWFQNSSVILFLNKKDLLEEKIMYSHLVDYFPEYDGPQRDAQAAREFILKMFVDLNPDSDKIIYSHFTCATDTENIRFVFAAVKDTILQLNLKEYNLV
# Procedure: (§2) Quantification of intracellular cAMP and IP1 was performed using the HTRF-cAMP dynamic kit and the HTRF-IP1 kit, respectively, on a Mithras LB 940 reader (Berthold Technologies) according to the manufacturer's instructions. For cAMP assays with M2-CHO cells, the Gi-biased muscarinic agonist iper-6-phth (ref. [30]) was applied.
# Supplementary Figure 12: Catalytic hydrogenation of FR to produce “FR-red” and determination of its Gq-inhibitory activity. (a) The exocyclic double bond (yellow box) of FR was hydrogenated by hydrogen gas in the presence of palladium/carbon as a catalyst in a pressure tube in analogy to a procedure published for the hydrogenation of YM2. The structure of the product FR-red was confirmed by high performance liquid chromatography coupled to electrospray ionization mass spectrometry (LCMS) and by 1H- and 13C-NMR spectra. (b) M1-CHO cells were pre-incubated with increasing concentrations of FR or (also on this page, place not known: “FR -red” hydrogen ation YM 2. -red FR a b -8 -7 -6 -5 0 25 50 75 100 FR compound (log M) IP1 (% of 30 µM carbachol) FR FR-red)
# (1 picture or pasted object on this page, not shown here)
# FR-red and IP1 accumulation was determined in response to carbachol (30 µM). Inhibition of Gq protein […]
# ± 0.05). Data are means ± SEM of at least three independent experiments each performed in triplicate.
# [5] = biological target: T2, purified recombinant Gαq (GαqΔ34) (Mus musculus, UniProt P21279); assay: [3H]GDP dissociation from purified Gαq; format: biochemical
# T2 construct: first 28 residues of rat Gαi1 (GNAI1, P10824 by own knowledge) (N); TEV-cleavage site (N); made in house; host or cells: insect cells (Sf9), pFastBac1 vector
# T2 sequence (P21279 35-359): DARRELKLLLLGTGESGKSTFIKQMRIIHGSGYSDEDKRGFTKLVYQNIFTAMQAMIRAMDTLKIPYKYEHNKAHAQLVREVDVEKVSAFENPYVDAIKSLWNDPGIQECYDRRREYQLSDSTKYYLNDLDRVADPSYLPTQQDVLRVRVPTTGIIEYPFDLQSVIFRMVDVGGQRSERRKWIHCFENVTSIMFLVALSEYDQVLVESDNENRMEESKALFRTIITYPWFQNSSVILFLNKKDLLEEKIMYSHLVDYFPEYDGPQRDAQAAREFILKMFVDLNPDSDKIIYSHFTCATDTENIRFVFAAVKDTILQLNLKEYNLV
# Procedure: GαqΔ34 (containing the first 28 residues of rat Gαi1 fused to mouse Gαq lacking the first 34 residues, and with a TEV-cleavage site between the Gαi1 and Gαq sequences) was purified after expression from a pFastBac1 vector in insect cells. Purified GαqΔ34 (∼7 mg ml^−1) was stored at −80 °C in 20 mM HEPES pH 8, 0.2 mM dithiothreitol, 2% (v/v) glycerol, 100 mM NaCl, 0.1 mg ml^−1 PMSF augmented with 10 mM NaF, 30 μM AlCl3, and 5 mM MgCl2.
# [^3H]GDP exchange by Gαq was measured based on previous protocols. Briefly, purified GαqΔ34 (100 nM) was incubated with 1 μM [^3H]GDP (42,500 c.p.m. pmol^−1) and 50 mM (NH4)2SO4 for 18 h at 20 °C in assay buffer A (50 mM HEPES pH 7.5, 1 mM EDTA, 0.9 mM MgSO4, 1 mM dithiothreitol, and 0.05% Genapol C-100). Excess [^3H]GDP was removed from Gαq using a ZebaTM spin desalting column following the manufacturer's protocol (Thermo Scientific). Approximately 20% of Gαq incorporated the radiolabelled nucleotide. The reaction mixtures were then mixed with the same volume of assay buffer A in the presence of 0.1–2% dimethylsulphoxide (DMSO), 0–200 nM FR and 1.5 M (NH4)2SO4 to reach final concentrations of […] DMSO, 0–100 nM FR and 750 mM (NH4)2SO4 in the reaction. Dissociation of [^3H]GDP was monitored at 20 °C by stopping the reaction by addition of 4 ml of an ice-cold wash buffer (20 mM Tris pH 8.0, 100 mM NaCl and 2 mM MgSO4). The quenched mixtures were filtered through nitrocellulose membranes, the membranes were washed four times with ice-cold wash buffer, and the filters air-dried for at least 10 min. Radioactivity was quantified by scintillation spectrometry.
# Supplementary Table 1: logEC values of the inhibitory effect of FR on [3H]GDP dissociation were
# independent of the time point used for quantification.
# [3H]GDP binding to purified Gαq proteins was quantified in presence of increasing concentrations of FR
# after four different time points (30 min, 60 min, 90 min, 120 min). Data were analyzed by fitting [3H]GDP
# binding versus FR concentration to the four parameter logistic function and the logarithm of the half
# maximal effective concentrations (logEC50 expressed as means ± SEM from the respective curves in Fig.
# 7h) for FR-induced inhibition of [3H]GDP dissociation are presented.
# [6] = tested on: B16 cells; assay: XTT metabolic activity of B16 cells; format: cell-based, mouse; settings: 72 h of FR treatment
# Procedure: as §1
# [7] = tested on: ERK1/2; assay: HTRF-based ERK1/2 phosphorylation assay in melanoma cell lines; parameters: species or system human and mouse; settings: 1 μM, 1 h
# Procedure: Quantification of phosphorylated ERK1/2 levels was performed using the phospho-ERK (Thr202/Tyr204) cellular assay kit (Cisbio). Melanoma cells were seeded into 96-well plates at a density of 25,000 or 50,000 cells per well and cultured overnight. The next day, medium was aspirated and cells were treated with 1 μM FR, 1 μM Trametinib, 1 μM Vemurafenib, or medium for 1 h at 37 °C. Subsequently, medium and inhibitors were removed and 50 μl lysis buffer were added to each well. The plates were incubated for 30 min at room temperature with shaking to lyse the cells and then frozen overnight at −20 °C. Lysates (16 μl) were transferred to a white 384-well plate. Anti-phospho-ERK1/2-d2 (2 μl) and anti-phospho-ERK1/2-Eu3^+-cryptate (2 μl) were added to each well and plates were incubated in the dark for 2 h at room temperature. Time-resolved fluorescence resonance energy transfer (FRET) signals were measured using the Mithras LB 940 multimode reader (Berthold Technologies).
# [8] = tested on: Gi-sensitive prostaglandin D2 receptor DP2/CRTH2; assay: cAMP lowering (HTRF), Gi-sensitive CRTH2 in CRTH2-HEK293; format: cell-based; settings: CRTH2-RLuc-GFP2-β-arrestin2-HEK293, PTX pretreatment
# Procedure: as §2
# [9] = tested on: CRTH2 β-arrestin2 recruitment; assay: BRET2 β-arrestin2 recruitment to CRTH2; format: cell-based; settings: CRTH2-RLuc-GFP2-β-arrestin2-HEK293; PTX 16-20 h, FR 30 min
# Procedure: For BRET^2 assays on HEK293 cells stably expressing CRTH2-Luc and GFP^2-β-arrestin2, cells were detached and resuspendend in HBSS with 20 mM HEPES at a density of 1.06 × 10^6 cells per ml. Cell suspension (170 μl) was distributed into white 96-well microplates and incubated in the presence of 10 μl buffer or agonist for 5 min before substrate addition. DeepBlueC coelenterazine (Gold Biotechnology, MO, USA; 20 μl per well) was injected by injector 3 to yield a final concentration of 5 μM. To detect BRET, light emissions at 400 and 515 nm were measured sequentially using a Mithras LB 940 instrument. The BRET signal (BRET ratio) was determined by calculating the ratio of the light emitted by the fluorescence acceptor (515 nm) and the light emitted by Rluc (400 nm). The cells were pretreated with PTX for 16–20 h and FR for 30 min.
compound,measurement,setting,value
"C=C1C(=O)N[C@@H](C)C(=O)N(C)[C@@H](C)C(=O)N[C@@H]([C@H](OC(=O)[C@@H](NC(=O)CC)[C@H](O)C(C)C)C(C)C)C(=O)N(C)[C@@H]([C@@H](C)OC)C(=O)O[C@H](C(C)C)[C@H](NC(C)=O)C(=O)O[C@H](Cc2ccccc2)C(=O)N1C [FR, FR900359] (Ac-[X1][dPhLac][NMeDha]A[NMeA][X1](Leu(3R-OH,Nα-propionyl))[NMeT](Me); ester 1-C)",cell viability / cellular metabolic homoeostasis,[1],does not disturb cellular metabolic homoeostasis
same,percentage of proliferating cells (Ki67),[2]; 24 h,did not alter
same,cell growth,[2]; 72 h,did not alter
same,Annexin V,[3],2.06%
same,IC50,[4],263 nM
same,EC50,"[5]; [3H]GDP binding to Gαq after 120 min dissociation, 20 °C, read-out: half effective concentration, prevention of [3H]GDP dissociation",15 nM
same,EC50,"[5]; time 30 min, read-out: logEC50, inhibition of [3H]GDP dissociation (converted)",15.5 nM
same,EC50,"[5]; time 60 min, read-out: logEC50, inhibition of [3H]GDP dissociation (converted)",12.3 nM
same,EC50,"[5]; time 90 min, read-out: logEC50, inhibition of [3H]GDP dissociation (converted)",13.2 nM
same,EC50,"[5]; time 120 min, read-out: logEC50, inhibition of [3H]GDP dissociation (converted)",15.5 nM
same,mitochondrial metabolism (XTT),[6],did not compromise mitochondrial metabolism
"CCC(=O)N[C@H](C(=O)O[C@H](C(C)C)[C@@H]1NC(=O)[C@H](C)N(C)C(=O)[C@H](C)NC(=O)C(C)N(C)C(=O)[C@@H](Cc2ccccc2)OC(=O)[C@@H](NC(C)=O)[C@@H](C(C)C)OC(=O)[C@H]([C@@H](C)OC)N(C)C1=O)[C@H](O)C(C)C (stereo partly drawn) [FR-red] (Ac-[X1][dPhLac][ξNMeA]A[NMeA][X1](Leu(3R-OH,Nα-propionyl))[NMeT](Me); ester 1-C)",IC50,[4],891 nM
CC(=O)Nc1cccc(-n2c(=O)n(C3CC3)c(=O)c3c(Nc4ccc(I)cc4F)n(C)c(=O)c(C)c32)c1 [Trametinib],ERK phosphorylation,[7],blunted ERK phosphorylation in all cell lines
CCCS(=O)(=O)Nc1ccc(F)c(C(=O)c2c[nH]c3ncc(-c4ccc(Cl)cc4)cc23)c1F [Vemurafenib],ERK phosphorylation,[7],inhibited ERK activation only in cell lines harbouring the mutant B-RafV600E allele
pertussis toxin [PTX],CRTH2-dependent lowering of cAMP,[8],fully prevented
same,PGD2-induced β-arrestin recruitment to CRTH2,[9],without effect
